Values of other authors in patent publication US20050266079A1, “Process for making aqueous coated beadlets” (SmithKline Beecham Corporation, priority 1999, published 2005).

Conditions: in vivo; cited from earlier work

In the case of `CN[C@@H](C)[C@@H](O)c1ccccc1.Cl` [Pseudoephedrine HCl, (1S, 2S)-2-Methylamino-1-phenyl-1-propanol hydrochloride], the elimination half life is given as 5 to 8 h.
